Laboratory results as given in ChEMBL document CHEMBL1909046, “DrugMatrix in vitro pharmacology data”.

Columns and labels:
Caspase-1 = biological target: T1, Caspase-1 (Homo sapiens, UniProt P29466); set-up: species or system Escherichia coli;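 further: Caspase-1 enzyme inhibition assay with a peptide substrate; in other assays of this panel Not Active means under 50% inhibition at 10 µM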
T1 sequence (P29466 whole entry): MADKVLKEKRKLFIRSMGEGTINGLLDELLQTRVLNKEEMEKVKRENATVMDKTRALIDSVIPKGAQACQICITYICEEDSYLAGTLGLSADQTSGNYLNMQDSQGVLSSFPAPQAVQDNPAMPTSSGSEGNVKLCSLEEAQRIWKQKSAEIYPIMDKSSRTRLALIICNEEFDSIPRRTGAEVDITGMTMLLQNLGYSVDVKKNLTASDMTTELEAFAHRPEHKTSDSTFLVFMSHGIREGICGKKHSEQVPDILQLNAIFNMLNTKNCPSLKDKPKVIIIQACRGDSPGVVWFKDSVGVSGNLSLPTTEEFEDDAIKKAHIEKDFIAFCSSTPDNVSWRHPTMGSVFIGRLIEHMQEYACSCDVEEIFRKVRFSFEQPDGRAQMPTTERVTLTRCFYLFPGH

Cathepsin G = biological target: T2, Cathepsin G (Homo sapiens, UniProt P08311); type: tissue-based; settings: neutrophil;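 further: inhibition of Cathepsin G enzyme activity, tested on an AMC-conjugated peptide substrate; in other assays of this panel Not Active means under 50% inhibition at 10 µM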
T2 sequence (P08311 whole entry): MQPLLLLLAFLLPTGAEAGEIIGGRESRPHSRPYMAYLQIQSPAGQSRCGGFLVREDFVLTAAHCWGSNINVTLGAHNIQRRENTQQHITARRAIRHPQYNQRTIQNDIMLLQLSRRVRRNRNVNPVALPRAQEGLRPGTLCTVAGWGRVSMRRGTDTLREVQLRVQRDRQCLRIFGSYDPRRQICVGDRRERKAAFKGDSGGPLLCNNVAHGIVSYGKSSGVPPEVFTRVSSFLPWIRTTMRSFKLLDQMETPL

[1] = biological target: Voltage-gated inwardly rectifying potassium channel KCNH2 (Homo sapiens, UniProt Q12809); settings: hek293; further: in other assays of this panel Not Active means under 50% inhibition at 10 µM
[2] = biological target: T3, Angiotensin-converting enzyme (Oryctolagus cuniculus, UniProt P12822); type: tissue-based, Lung;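 further: enzymatic inhibition of angiotensin-converting enzyme measured with FAPGG as the substrate; in other assays of this panel Not Active means under 50% inhibition at 10 µM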
T3 sequence (P12822 whole entry): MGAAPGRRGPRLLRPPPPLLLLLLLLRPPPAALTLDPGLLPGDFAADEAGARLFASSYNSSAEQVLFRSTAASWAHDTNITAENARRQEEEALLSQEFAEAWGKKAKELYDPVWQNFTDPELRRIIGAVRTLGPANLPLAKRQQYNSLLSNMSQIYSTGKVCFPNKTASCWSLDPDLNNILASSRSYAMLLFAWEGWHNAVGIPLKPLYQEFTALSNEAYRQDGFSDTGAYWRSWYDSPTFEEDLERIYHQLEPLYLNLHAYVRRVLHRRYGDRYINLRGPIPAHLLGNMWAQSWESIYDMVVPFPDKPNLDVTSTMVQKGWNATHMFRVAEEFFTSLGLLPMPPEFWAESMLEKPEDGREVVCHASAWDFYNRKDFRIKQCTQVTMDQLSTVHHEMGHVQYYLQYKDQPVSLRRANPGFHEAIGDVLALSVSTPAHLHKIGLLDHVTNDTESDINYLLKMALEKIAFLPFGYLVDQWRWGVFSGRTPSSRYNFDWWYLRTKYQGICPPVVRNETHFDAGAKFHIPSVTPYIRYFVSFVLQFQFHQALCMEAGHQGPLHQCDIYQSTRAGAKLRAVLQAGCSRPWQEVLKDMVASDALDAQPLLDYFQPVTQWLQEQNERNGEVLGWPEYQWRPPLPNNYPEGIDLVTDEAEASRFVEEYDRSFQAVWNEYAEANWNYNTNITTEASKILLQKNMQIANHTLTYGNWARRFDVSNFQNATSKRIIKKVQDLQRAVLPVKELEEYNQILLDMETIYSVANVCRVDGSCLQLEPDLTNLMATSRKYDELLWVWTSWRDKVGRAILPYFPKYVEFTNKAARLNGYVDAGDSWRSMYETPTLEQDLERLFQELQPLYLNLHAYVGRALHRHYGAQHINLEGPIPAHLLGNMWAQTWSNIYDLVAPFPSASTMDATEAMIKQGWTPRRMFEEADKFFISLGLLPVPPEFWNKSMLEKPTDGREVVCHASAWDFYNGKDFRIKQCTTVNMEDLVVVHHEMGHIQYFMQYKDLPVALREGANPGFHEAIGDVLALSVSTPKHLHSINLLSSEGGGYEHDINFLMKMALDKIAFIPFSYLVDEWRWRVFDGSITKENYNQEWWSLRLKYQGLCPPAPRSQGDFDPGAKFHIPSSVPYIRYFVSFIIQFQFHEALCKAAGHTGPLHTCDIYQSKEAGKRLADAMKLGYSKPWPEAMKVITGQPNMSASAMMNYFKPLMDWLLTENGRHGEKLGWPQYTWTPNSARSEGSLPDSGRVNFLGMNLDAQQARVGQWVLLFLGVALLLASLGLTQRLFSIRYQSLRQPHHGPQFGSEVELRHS

[3] = DRUGMATRIX: Sodium/nucleoside co-transporter radioligand binding (ligand: nitrobenzylthioinosine); type: cell membranes, Cavia porcellus, Dunkin-Hartley, Cerebral cortex, Membrane; settings: Not Active = under 50% inhibition at 10 µM
[4] = DRUGMATRIX: Calcium Channel Type L, Phenylalkylamine radioligand binding (ligand: [3H] (-)-Desmethoxyverapamil (D-888)); type: cell membranes, Rattus norvegicus, Wistar, Brain, Membrane; settings: Not Active = under 50% inhibition at 10 µM
[5] = biological target: C-C chemokine receptor type 5 (Homo sapiens, UniProt P51681); type: cell membranes, Membrane; settings: hek293; further: in other assays of this panel Not Active means under 50% inhibition at 10 µM
Sequence of C-C chemokine receptor type 5 (P51681 whole entry): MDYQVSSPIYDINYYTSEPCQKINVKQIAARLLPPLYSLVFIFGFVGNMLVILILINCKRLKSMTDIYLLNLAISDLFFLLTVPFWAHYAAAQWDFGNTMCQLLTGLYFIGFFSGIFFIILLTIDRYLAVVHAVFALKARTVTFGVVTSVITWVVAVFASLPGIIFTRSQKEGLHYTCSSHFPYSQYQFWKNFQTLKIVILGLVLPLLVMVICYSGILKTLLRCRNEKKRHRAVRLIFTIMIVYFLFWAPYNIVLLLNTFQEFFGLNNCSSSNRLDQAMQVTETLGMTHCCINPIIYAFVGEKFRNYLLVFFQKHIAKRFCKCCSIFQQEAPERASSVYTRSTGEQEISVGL

Sequence of Voltage-gated inwardly rectifying potassium channel KCNH2 (Q12809 whole entry): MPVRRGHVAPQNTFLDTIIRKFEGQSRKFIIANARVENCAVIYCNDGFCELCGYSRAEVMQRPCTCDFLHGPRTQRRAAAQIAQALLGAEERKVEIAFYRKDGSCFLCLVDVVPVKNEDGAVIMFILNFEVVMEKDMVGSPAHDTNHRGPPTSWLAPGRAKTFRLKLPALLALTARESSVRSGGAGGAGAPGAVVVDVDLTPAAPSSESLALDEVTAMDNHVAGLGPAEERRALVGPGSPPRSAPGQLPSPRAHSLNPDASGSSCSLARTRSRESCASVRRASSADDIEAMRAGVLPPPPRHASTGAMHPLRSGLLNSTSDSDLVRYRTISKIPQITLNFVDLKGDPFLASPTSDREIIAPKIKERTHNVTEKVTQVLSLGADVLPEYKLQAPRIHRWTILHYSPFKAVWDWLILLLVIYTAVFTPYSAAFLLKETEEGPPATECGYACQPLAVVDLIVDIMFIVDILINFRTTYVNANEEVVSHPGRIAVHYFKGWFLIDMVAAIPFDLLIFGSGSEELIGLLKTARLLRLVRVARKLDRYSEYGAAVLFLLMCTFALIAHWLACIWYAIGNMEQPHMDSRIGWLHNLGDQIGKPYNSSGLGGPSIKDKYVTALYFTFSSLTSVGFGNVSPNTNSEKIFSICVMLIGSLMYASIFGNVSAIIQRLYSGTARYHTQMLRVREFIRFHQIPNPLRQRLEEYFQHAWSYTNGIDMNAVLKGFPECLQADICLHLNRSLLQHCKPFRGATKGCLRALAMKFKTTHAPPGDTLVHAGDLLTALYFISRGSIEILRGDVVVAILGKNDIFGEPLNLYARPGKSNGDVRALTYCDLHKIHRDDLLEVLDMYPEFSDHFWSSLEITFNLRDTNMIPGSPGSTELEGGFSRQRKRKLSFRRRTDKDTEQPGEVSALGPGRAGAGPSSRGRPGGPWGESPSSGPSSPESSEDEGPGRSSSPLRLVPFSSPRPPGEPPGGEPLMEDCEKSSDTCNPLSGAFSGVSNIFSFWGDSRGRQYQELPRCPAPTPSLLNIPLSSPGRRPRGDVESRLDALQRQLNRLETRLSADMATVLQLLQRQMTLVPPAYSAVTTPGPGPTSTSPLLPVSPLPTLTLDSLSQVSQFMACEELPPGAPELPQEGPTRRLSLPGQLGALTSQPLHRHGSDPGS

| Compound | IC50 (Caspase-1; read-out: IC50) | IC50 (Cathepsin G) | IC50 [1] | Ki [1] | IC50 [2] | IC50 [3] | Ki [3] | IC50 [4] | Ki [4] | IC50 [5] | IC50 (Caspase-1) | IC50 ([3]; read-out: IC50) | Ki ([3]; read-out: Ki) | IC50 ([4]; read-out: IC50) | Ki ([4]; read-out: Ki) | Ki (Caspase-1) | Ki (Cathepsin G) | Ki [2] | Ki [5] |
| --- | --- | --- | --- | --- | --- | --- | --- | --- | --- | --- | --- | --- | --- | --- | --- | --- | --- | --- | --- |
| CO[C@H]1/C=C/O[C@@]2(C)Oc3c(C)c(O)c4c(O)c(c(/C=N/N5CCN(C)CC5)c(O)c4c3C2=O)NC(=O)/C(C)=C\C=C\[C@H](C)[C@H](O)[C@@H](C)[C@@H](O)[C@@H](C)[C@H](OC(C)=O)[C@@H]1C [RIFAMPIN] | 8.32 µM | Not Active | Not Active | Not Active | Not Active | Not Active | Not Active | Not Active | Not Active | Not Active | – | – | – | – | – | – | – | – | – |
| Cc1noc(NS(=O)(=O)c2ccc(N)cc2)c1C [SULFISOXAZOLE] | – | Not Active | Not Active | Not Active | Not Active | Not Active | Not Active | Not Active | Not Active | Not Active | Not Active | – | – | – | – | – | – | – | – |
| NS(=O)(=O)c1cc2c(cc1Cl)NC(C(Cl)Cl)NS2(=O)=O (centres undefined) [TRICHLORMETHIAZIDE] | – | Not Active | Not Active | Not Active | Not Active | Not Active | Not Active | Not Active | Not Active | Not Active | Not Active | – | – | – | – | – | – | – | – |
| COc1nc(C)nc(Cl)c1NC1=NCCN1 [MOXONIDINE] | – | Not Active | Not Active | Not Active | Not Active | Not Active | Not Active | Not Active | Not Active | Not Active | Not Active | – | – | – | – | – | – | – | – |
| CC1(C)O[C@@H]2C[C@H]3[C@@H]4CCC5=CC(=O)C=C[C@]5(C)[C@@]4(F)[C@@H](O)C[C@]3(C)[C@]2(C(=O)CO)O1 [TRIAMCINOLONE ACETONIDE] | – | Not Active | Not Active | Not Active | Not Active | Not Active | Not Active | Not Active | Not Active | Not Active | Not Active | – | – | – | – | – | – | – | – |
| CSc1ccc(/C=C2/C(C)=C(CC(=O)O)c3cc(F)ccc32)cc1 [SULINDAC SULFIDE] | – | Not Active | Not Active | Not Active | Not Active | Not Active | Not Active | Not Active | Not Active | Not Active | Not Active | – | – | – | – | – | – | – | – |
| Nc1c2c(nc3ccccc13)CCCC2 [TACRINE] | – | Not Active | Not Active | Not Active | Not Active | Not Active | Not Active | Not Active | Not Active | Not Active | Not Active | – | – | – | – | – | – | – | – |
| N[C@@H](Cc1ccc(O)c(O)c1)C(=O)O [LEVODOPA] | – | Not Active | Not Active | Not Active | Not Active | Not Active | Not Active | Not Active | Not Active | Not Active | Not Active | – | – | – | – | – | – | – | – |
| O=NN(CCCl)C(=O)NC1CCCCC1 [LOMUSTINE] | – | Not Active | Not Active | Not Active | Not Active | Not Active | Not Active | Not Active | Not Active | Not Active | Not Active | – | – | – | – | – | – | – | – |
| Cc1c(C)c2c(c(C)c1O)CCC(C)(COc1ccc(CC3SC(=O)NC3=O)cc1)O2 (centres undefined) [TROGLITAZONE] | – | Not Active | Not Active | Not Active | Not Active | Not Active | Not Active | Not Active | Not Active | Not Active | Not Active | – | – | – | – | – | – | – | – |
| Cc1cccc(N(C)C(=S)Oc2ccc3ccccc3c2)c1 [TOLNAFTATE] | – | Not Active | Not Active | Not Active | Not Active | Not Active | Not Active | Not Active | Not Active | Not Active | Not Active | – | – | – | – | – | – | – | – |
| NC[C@H]1CC[C@H](C(=O)O)CC1 [TRANEXAMIC ACID] | – | Not Active | Not Active | Not Active | Not Active | Not Active | Not Active | Not Active | Not Active | Not Active | Not Active | – | – | – | – | – | – | – | – |
| CC[C@@H](CO)NC(=O)[C@@H]1C=C2c3cccc4[nH]cc(c34)C[C@H]2N(C)C1 [METHYLERGONOVINE] | – | Not Active | Not Active | Not Active | Not Active | Not Active | Not Active | Not Active | Not Active | Not Active | Not Active | – | – | – | – | – | – | – | – |
| c1ccc([C@H]2CN3CCSC3=N2)cc1 [LEVAMISOLE] | – | Not Active | Not Active | Not Active | Not Active | Not Active | Not Active | Not Active | Not Active | Not Active | Not Active | – | – | – | – | – | – | – | – |
| OCCN(CCO)c1nc(N2CCCCC2)c2nc(N(CCO)CCO)nc(N3CCCCC3)c2n1 [DIPYRIDAMOLE] | – | Not Active | Not Active | Not Active | Not Active | – | – | Not Active | Not Active | Not Active | Not Active | 0.083 µM | 0.029 µM | – | – | – | – | – | – |
| CC(C)(C)NC(=O)[C@@H]1C[C@@H]2CCCC[C@@H]2CN1C[C@@H](O)[C@H](Cc1ccccc1)NC(=O)[C@H](CC(N)=O)NC(=O)c1ccc2ccccc2n1 | – | Not Active | Not Active | Not Active | Not Active | Not Active | Not Active | – | – | Not Active | Not Active | – | – | 6.83 µM | 6.65 µM | – | – | – | – |
| SODIUM NITROPRUSSIDE | – | Not Active | Not Active | Not Active | Not Active | Not Active | Not Active | Not Active | Not Active | Not Active | Not Active | – | – | – | – | Not Active | Not Active | Not Active | Not Active |
| Cn1ccnc1S [METHIMAZOLE] | – | Not Active | Not Active | Not Active | Not Active | Not Active | Not Active | Not Active | Not Active | Not Active | Not Active | – | – | – | – | – | – | – | – |
| Cc1oncc1C(=O)Nc1ccc(C(F)(F)F)cc1 [LEFLUNOMIDE] | – | Not Active | Not Active | Not Active | Not Active | – | – | Not Active | Not Active | Not Active | Not Active | 15.1 µM | 5.16 µM | – | – | – | – | – | – |
